Results from article PMC12668310, “High‐Throughput Synthesis and Screening of a Cyanimide Library Identifies Selective Inhibitors of ISG15‐Specific Protease mUSP18” (Angewandte Chemie (International Ed. in English), 2025).
Like-named read-outs stand apart in the source and are kept apart here.

Biological target: T1, mUSP18 (Mus musculus, UniProt Q9WTV6)
T1 construct: (46-368); His-tag (N); made in house
T1 sequence (Q9WTV6 46-368): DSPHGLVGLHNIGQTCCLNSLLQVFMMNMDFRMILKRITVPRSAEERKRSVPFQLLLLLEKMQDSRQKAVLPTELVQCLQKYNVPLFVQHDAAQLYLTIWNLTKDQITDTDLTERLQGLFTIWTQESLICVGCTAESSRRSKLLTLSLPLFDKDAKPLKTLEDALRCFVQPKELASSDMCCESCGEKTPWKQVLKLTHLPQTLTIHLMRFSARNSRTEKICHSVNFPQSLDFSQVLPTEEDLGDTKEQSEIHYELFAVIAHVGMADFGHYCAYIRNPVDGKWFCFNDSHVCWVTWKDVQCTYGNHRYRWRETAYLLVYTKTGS
Assay: High-throughput screening, ISG15ct-RhoMP, single dose 1.25 µM
Type: biochemical, murine

[1] = mUSP18 %inhibition, carboxylic acid (CA) building block alone, read-out: %inh CA only
[2] = mUSP18 %inhibition, carboxylic acid (CA) with coupling reagents DIC/HOBT, read-out: %inh CA + DIC/HOBT

| SMILES | inhibition at 1.25 µM [1] [%] | inhibition at 1.25 µM [2] [%] | inhibition of mUSP18 by individual CA's and coupling reagents (screened with and without DIC/HOBt) | %inh CA only (mUSP18 %inhibition, carboxylic acid (CA) building block alone) [%] | %inh CA + DIC/HOBT (mUSP18 %inhibition, carboxylic acid (CA) with coupling reagents DIC/HOBT) [%] |
| --- | --- | --- | --- | --- | --- |
| O=C(O)c1csc(-c2ccc(Br)s2)n1 [CA292] | 6.43 | 1.42 |  |  |  |
| O=C(O)c1cc(C2CC2)n[nH]1 [CA293] | 0.33 | 14.3 |  |  |  |
| O=C(O)c1cc(-c2ccncc2)on1 [CA294] | -3.88 | -0.96 |  |  |  |
| Cc1cc(C(=O)O)c(C)n1-c1cccnc1 [CA297] | -2.57 | -1.91 |  |  |  |
| O=C(O)c1csc(-c2ccncc2)n1 [CA298] | -1.96 | -1.91 |  |  |  |
| O=C(O)c1cccn1-c1c(Cl)cccc1Cl [CA302] | 0.53 | 98.1 | could inhibit mUSP18 |  |  |
| O=C(O)c1cnn(-c2ccc(Br)cc2)c1 [CA303] | -3.17 | 14.7 |  |  |  |
| Cn1cc(-c2ccc(C(=O)O)o2)cn1 [CA304] | -4.51 | 6.42 |  |  |  |
| CN1C(=O)C[C@@H](C(=O)O)[C@@H]1c1cccnc1 [CA306] |  |  |  | 15.74 | -6.80 |
| Cc1nc(COc2ccccc2C(=O)O)no1 [CA307] | 9.87 | -3.65 |  |  |  |
| Cc1onc(-c2ccncc2)c1C(=O)O [CA308] | 7.23 | -3.66 |  |  |  |
| O=C(O)c1cccc(OCCOc2ccccc2Cl)n1 [CA309] | 8.2 | -0.34 |  |  |  |
| O=C(O)CC1(n2cnnn2)CCOCC1 [CA310] | 3.18 | -2.42 |  |  |  |
| O=C(O)c1sc(N2CCCC2)nc1Cl [CA311] | 3.86 | -3.06 |  |  |  |
| COc1ccc(CN2CCC2C(=O)O)cc1 (centres unmarked) [CA312] | 3.67 | -3.27 |  |  |  |
| COCC1CCN(c2ccc(C(=O)O)cc2)C1 (centres unmarked) [CA313] | 2.9 | 43.3 |  |  |  |
| Cc1nn(-c2cccnc2)nc1C(=O)O [CA314] | 5.77 | -5.31 |  |  |  |
| Cc1nn(-c2ccccn2)c(C)c1CC(=O)O [CA315] | 3.49 | -2.69 |  |  |  |
| O=C(O)c1ccnn1C1CCC1 [CA316] | 3.75 | -3.62 |  |  |  |
| O=C(O)c1cn(CC2CCOC2)nn1 (centres unmarked) [CA318] | -2.05 | -0.23 |  |  |  |
| O=C(O)c1ccn(-c2ccc(C(F)(F)F)cn2)n1 [CA319] | -2.14 | -1.07 |  |  |  |
| O=C(O)c1cnn(Cn2cc(Cl)cn2)c1 [CA321] | -3.47 | 1.28 |  |  |  |
| O=C(O)c1nc(OCC2CC2)ccc1Cl [CA322] | -0.54 | -0.53 |  |  |  |
| CC(C(=O)O)n1ccc(C2CC2)n1 (centres unmarked) [CA323] | -0.32 | 0.72 |  |  |  |
| Cn1nc(CC(=O)O)cc1C1CC1 [CA325] | -0.57 | 0.73 |  |  |  |
| Cc1sc(-n2cnnn2)c(C(=O)O)c1C [CA327] | -5.75 | 4.6 |  |  |  |

| SMILES | inhibition at 1.25 µM [1] [%] | inhibition at 1.25 µM [2] [%] | inhibition of mUSP18 by individual CA's and coupling reagents (screened with and without DIC/HOBt) | %inh CA only (mUSP18 %inhibition, carboxylic acid (CA) building block alone) [%] | %inh CA + DIC/HOBT (mUSP18 %inhibition, carboxylic acid (CA) with coupling reagents DIC/HOBT) [%] |
| --- | --- | --- | --- | --- | --- |
| Cc1noc(-c2ccc(C(=O)O)cc2)n1 [CA328] | -3.57 | 6.75 |  |  |  |
| CCOc1oc(-c2ccco2)nc1C(=O)O [CA329] | 14.4 | 1 |  |  |  |
| Cc1ccc(S(=O)(=O)NCCc2ccc(F)cc2)cc1C(=O)O [CA330] | 11.3 | -0.35 |  |  |  |
| Cc1nc(-c2ccco2)ccc1C(=O)O [CA331] | 7.93 | -2.82 |  |  |  |
| Cc1ccc(CN2C(=O)CCC2C(=O)O)cc1 (centres unmarked) [CA337] | -0.24 | -1.16 |  |  |  |
| O=C(O)c1nc(C2CC2)ncc1Br [CA338] | 7.6 | -0.51 |  |  |  |
| CN1C(=O)CCC(C(=O)O)C1c1cccs1 (centres unmarked) [CA339] | 2.79 | -5.82 |  |  |  |
| Cc1noc(C)c1S(=O)(=O)N1CCCC1C(=O)O (centres unmarked) [CA342] | 2.95 | 1.55 |  |  |  |
| Cc1oc(-c2cccs2)nc1C(=O)O [CA346] | 8.25 | 12.6 |  |  |  |
| O=C(O)c1ccnc(C2CC2)n1 [CA347] | -0.62 | 1.21 |  |  |  |
| Cn1ccnc1CN1CCC(C(=O)O)CC1 [CA348] | -0.25 | -2.62 |  |  |  |
| O=C(O)c1cc(C2CC2)no1 [CA349] | -3.22 | 5.85 |  |  |  |
| O=C(O)C1CCN(C(=O)c2ccc(Cl)s2)CC1 [CA350] | -0.76 | 4.42 |  |  |  |
| O=C(O)c1ccc(Oc2cccc(Cl)c2)cn1 [CA351] | 4.42 | 14.8 |  |  |  |
| CC1CN(c2ccc(C(=O)O)cn2)CC(C)O1 (centres unmarked) [CA352] | -4.1 | 13.3 |  |  |  |
| O=C(O)c1csc(C2CCCCC2)n1 [CA353] | 14.4 | 1.26 |  |  |  |
| O=C(O)c1ccc(Cn2cccn2)s1 [CA355] | 7.41 | -1.93 |  |  |  |
| O=C(O)C1CC2CCC1O2 (centres unmarked) [CA356] | 3.97 | -4.92 |  |  |  |
| O=C(O)C1CC2C=CC1O2 (centres unmarked) [CA358] | 5.65 | -4.55 |  |  |  |
| O=C(O)C1CC=CCC1C(=O)N1CCOCC1 (centres unmarked) [CA359] | 4.09 | 0.61 |  |  |  |
| O=C(O)c1cccc(Cn2cncn2)c1 [CA361] | -2.66 | 0.1 |  |  |  |
| O=C(O)c1cc(-n2cccc2)ccn1 [CA362] | 6.21 | 0.7 |  |  |  |
| O=C(O)c1ccc(Cn2ccnn2)o1 [CA363] | 4.39 | -0.81 |  |  |  |
| Cc1onc(C(=O)O)c1CN1CCOCC1 [CA364] | 5.31 | 1.01 |  |  |  |
| O=C(O)C1CCN(S(=O)(=O)N2CCCCC2)CC1 [CA365] | -1.04 | 2.17 |  |  |  |
| CCn1nccc1-c1cc(C(=O)O)no1 [CA368] | 0.71 | 2.58 |  |  |  |

The next lines start with the values.

| inhibition at 1.25 µM [1] [%] | inhibition at 1.25 µM [2] [%] | inhibition of mUSP18 by individual CA's and coupling reagents (screened with and without DIC/HOBt) | %inh CA only (mUSP18 %inhibition, carboxylic acid (CA) building block alone) [%] | %inh CA + DIC/HOBT (mUSP18 %inhibition, carboxylic acid (CA) with coupling reagents DIC/HOBT) [%] | SMILES |
| --- | --- | --- | --- | --- | --- |
| 1.57 | -1.23 |  |  |  | O=C(O)c1ccc(S(=O)(=O)Nc2cccc(Cl)c2F)o1 [CA289] |
| -0.53 | -3.12 |  |  |  | O=C(O)C1CCCN1C(=O)c1ccncc1 (centres unmarked) [CA290] |
| 3.32 | -0.72 |  |  |  | Cc1ccc(S(=O)(=O)N[C@@H](Cc2ccccc2)C(=O)O)cc1 [CA291] |
| -4.32 | 40.8 |  |  |  | O=C(O)c1ccc(N2CCCC2)c(F)c1 [CA295] |
| -2.15 | 1.46 |  |  |  | O=C(O)Cc1ccc(OCCOc2ccccc2)cc1 [CA296] |
| -2.04 | 0.0181 |  |  |  | O=C(O)C1CN(C(=O)OCc2ccccc2)CCO1 (centres unmarked) [CA300] |
| -3.64 | 0.63 |  |  |  | O=C(O)Cc1cnn(-c2ccccc2)n1 [CA301] |
| -6.19 | 9.63 |  |  |  | O=C(O)c1ccc(F)c(S(=O)(=O)N2CCC2)c1 [CA305] |
| 3.86 | -1.32 |  |  |  | O=C(O)CC1(Cn2cnnn2)CCCCC1 [CA317] |
| -2.92 | 4.46 |  |  |  | O=C(O)c1sccc1S(=O)(=O)NCc1ccco1 [CA320] |
| -1.59 | 1.03 |  |  |  | Cn1cc(S(=O)(=O)N2CCOCC2)cc1C(=O)O [CA324] |
| -1.48 | -1.62 |  |  |  | COc1ccc(C(=O)O)cc1S(=O)(=O)NCCCN1CCOCC1 [CA326] |
| 2.56 | -3.79 |  |  |  | O=C(CC1(C(=O)O)CCCC1)N1CCOCC1 [CA332] |
| 1.66 | -0.9 |  |  |  | CN(Cc1ccccc1)C(=O)N1CCC(C(=O)O)CC1 [CA333] |
| 0.85 | 6.5 |  |  |  | O=C(O)C1(NS(=O)(=O)C=Cc2ccccc2)CCCC1 [CA334] |
| 2.86 | -1.08 |  |  |  | O=C(O)C(Cc1ccccc1)N1CCCOC1=O (centres unmarked) [CA335] |
| 1.69 | -1.03 |  |  |  | O=C(O)c1ccc(N2CCCS2(=O)=O)cc1 [CA336] |
| 3.33 | -0.36 |  |  |  | COc1ccc(CC(=O)O)cc1S(=O)(=O)N1CCOCC1 [CA340] |
| 0.41 | 3.46 |  |  |  | O=C(O)c1ccc(-c2ccccn2)s1 [CA341] |
| 13.5 | 8.07 |  |  |  | Cc1cc(C(=O)N(C)c2ccccc2C(=O)O)sc1C [CA343] |
| 0.4 | 47 |  |  |  | O=C(O)c1ccc(N2CCCCCC2)nc1 [CA344] |
| 2 | 4.68 |  |  |  | O=C(O)CC1=NN(c2cccc(Cl)c2)C(=O)C1 [CA345] |
| 10.9 | -1.55 |  |  |  | O=C(O)c1occc1-c1ccccc1 [CA354] |
| 4.64 | -1.59 |  |  |  | O=C(O)c1ccc(-c2ccccn2)nc1 [CA357] |
| 3.09 | -0.29 |  |  |  | O=C(O)c1cccc(N2CCOCC2)n1 [CA360] |
| 0.85 | 3.29 |  |  |  | CC1(C(=O)O)CCCCN1C(=O)OCc1ccccc1 (centres unmarked) [CA366] |
| 1.29 | 5.26 |  |  |  | O=C(O)c1sccc1S(=O)(=O)NC1CCCCCC1 [CA367] |
| 0.72 | 1.39 |  |  |  | O=C(O)c1cccc(C(=O)N2CCCC2)n1 [CA369] |
